In patent US8207157B2, “Methods and compositions for repelling arthropods” (The United States of America, as represented by the …, priority 2006, dated 2012):

Tests used:
[1] = tested on: Anopheles albimanus mosquitoes; assay: Competitive (two-port) olfactometer bioassay of attractants and inhibitors; format: in vivo; settings: competing port: B + (1-MPZ) + (4-MM)
female Ae. aegypti = assay: as above; format: in vivo, Aedes aegypti
From the text: Mosquitoes choose to fly upwind into a port with the treatment or choose to remain in the cage. It is clear that in competition, these mosquitoes preferred the natural human odors over the blend by about a 5:1 margin.

[2] = tested on: female Aedes aegypti mosquitoes; assay: Non-competitive olfactometer bioassay of absolute attraction to attractants with or without candidate inhibitors; format: in vivo; settings: for Attraction with 50 μL 1-MPZ mean ± SE (%): 3 min; for Attraction Mean ± SE (%): 50 μL heterocycle combined with 500 μL 3-compound attractant blend, line Blend = attractant alone

## CN1CCNCC1 [1-MPZ, 1-methylpiperazine]
[1]; port: B + (1-MPZ)
  Attraction mean ± SE (%), Treatment 2: 9.7 ± 3.3%
Female Ae. aegypti; both ports: Human + 1-MPZ (50 μL) vs Blend, 97.2% without 1-MPZ
  Total Catch (%): 78.1%
Female Ae. aegypti; port: B + (1-MPZ), competing port: B + (1-M-4-OPZ)
  Attraction mean ± SE (%), Treatment 1: 4.6 ± 1.5%
Female Ae. aegypti; port: B + (1-MPZ), competing port: B + (1-MPZ) + (4-MM)
  Attraction mean ± SE (%), Treatment 2: 5.1 ± 1.1%
Female Ae. aegypti; port: B + (1-MPZ), competing port: B + (4-MM)
  Attraction mean ± SE (%), Treatment 1: 5.4 ± 1.3%
Female Ae. aegypti; port: Blend + inhibitor (50 μL each), competing port: Blend
  Attraction mean ± SE (%), Treatment with Inhibitor: 3.4 ± 1.0%
Female Ae. aegypti; port: Blend + inhibitor (50 μL each), competing port: RH odors
  Attraction mean ± SE (%), Treatment with Inhibitor: 0.9 ± 0.3%
Female Ae. aegypti; port: RH odors + inhibitor (50 μL each), competing port: Blend
  Attraction mean ± SE (%), Treatment with Inhibitor: 14.1 ± 2.7%
Female Ae. aegypti; port: RH odors + inhibitor (50 μL each), competing port: LH odors
  Attraction mean ± SE (%), Treatment with Inhibitor: 7.7 ± 1.2%
Female Ae. aegypti; port: human odor + 50 μL 1-MPZ, competing port: Blend
  Attraction ± SE (%), Treatment 1 port: 29.5 ± 3.2%
[2]; attractant: 1 mL 3-compound blend
  Attraction with 50 μL 1-MPZ mean ± SE (%): 12.8 ± 1.8%
[2]; attractant: human arm/hand odor
  Attraction with 50 μL 1-MPZ mean ± SE (%): 23.5 ± 3.0%

## CN1CCOCC1 [4-MM, 4-methylmorpholine]
[1]; port: B + (4-MM)
  Attraction mean ± SE (%), Treatment 2: 5.2 ± 2.0%
Female Ae. aegypti; port: B + (4-MM), competing port: B + (1-MPZ)
  Attraction mean ± SE (%), Treatment 2: 8.0 ± 1.1%
Female Ae. aegypti; port: B + (4-MM), competing port: B + (1-MPZ) + (4-MM)
  Attraction mean ± SE (%), Treatment 2: 5.1 ± 1.8%

## OCCN1CCN(CCO)CC1 [1,4-bis(2-hydroxyethyl)piperazine]
[2]; listed as 1,4-bis (2-hydroxyethyl)piperazine-2,2′-1,4-diyldiethanol
  Attraction Mean ± SE (%): 73%

## CCCCCCCCN1CCN(C)CC1 [1M-4-OPZ, 1-methyl-4-octylpiperazine]
Female Ae. aegypti; port: B + (1-M-4-OPZ), competing port: B + (1-MPZ)
  Attraction mean ± SE (%), Treatment 2: 24.5 ± 4.4%

## C1CNCCN1 [piperazine]
[2]
  Attraction Mean ± SE (%): 41.4%
